The values that follow come from patent US20050075375A1 (priority 2003, published 2005).

Each structure is given as a SMILES string.

In this assay the test system is monocistronic NK5.1 HCV replicon in Huh7 cells. Nature of the assay: HCV replicon assay, monocistronic replicon cell line. The format is cell-based, hepatitis C virus. The note with it: Hepatitis C virus, Huh-7, 72 h; Table 1; monocistronic replicon in Huh7 cells, 3 days incubation, HCV RNA/GAPDH RNA by TaqMan RT-PCR; read-out: Mono EC50 Median. An excerpt: HCV Replicon Assays (Replicon EC50 (μM))
HCV replication can be measured by a replicon assay such as described by Vrolijk et al, J. Virol. Methods 110:201(2003), which is hereby incorporated in its entirety by reference. The method was implemented as follows.
Monocistronic Replicon Cell Line:
Human hepatocyte Huh7 cells containing the monocistronic NK5.1 replicon were obtained from Ralf Bartenschlager at the University of Mainz, Germany. These cells were maintained under hygromycin selection and passaged when 80-90% confluent.
This cell line contains an autonomously replicating RNA element (replicon) incorporating the non-structural HCV elements necessary for replication, and upon which the survival of the replicon in the cell depends. This replicon contains a single internal ribosome entry site (HCV IRES). Inhibition of any of the critical HCV finctions by a compound leads to loss of the replicon as measured by HCV replicon RNA copy number reduction. The amount of HCV RNA present following a standard incubation with a compound is a measure of the anti-HCV activity of the compound. The assay was conducted by preparing sufficient 96-well plates containing these cells, wherein cells are seeded at 6000 cells/well in a 96-well plate, in 200 μl of final media volume. Cells were then incubated for 24 hours at 37 C., 5% CO2, and 95% humidity before compound was added. Six point half-log concentration response assays were conducted to determine potency/EC50 of Formula I compounds to inhibit HCV replicon replication. The final percent DMSO acceptable in this assay system is 0.6%. Compounds were diluted in media in an appropriate format and 5 μl of each drug dilution is added to each well. Cells were then incubated with compounds for 3 days at 37 C., 5% CO2, and 95% humidity. Following the three day incubation period, plates were washed twice with phosphate buffered saline to remove media and cells were lysed with Qiagen extraction buffer. RNA was extracted and isolated with the Qiagen RNAeasy kit according to the manufacturer's protocol (Qiagen). TaqMan One-Step RT-PCR was used in conjunction with an ABI 7700 Sequence Detector (Applied Biosystems) for the quantitation and analysis of HCV replicon RNA copy number. A GAPDH probe was used for internal normalization. The ratio of HCV RNA to cellular GAPDH RNA was determined and compared to the DMSO-only treated control, and the ratio of HCV RNA/GAPDH RNA was used for an EC50 determination and as a measure of specificity for inhibition of the HCV replicon.
(Replicon systems follow genome replication, usually without infectious particles.)

A word on the EC50: it is the concentration that produces a half-maximal response. For `Oc1ccccc1-c1ccnn1-c1ccccn1` [Compound 44, 2-(2-Pyridin-2-yl-2H-pyrazol-3-yl)-phenol], the EC50 was greater than 32 µM.

As for `COc1ccc(-c2ccn(-c3ncccc3[N+](=O)[O-])n2)c(F)c1` [Compound 45, 2-[3-(2-Fluoro-4-methoxy-phenyl)-pyrazol-1-yl]-3-nitro-pyridine], the EC50 turned out to be 5.8 µM.

In the case of `COc1ccc(-c2ccnn2-c2ncccc2[N+](=O)[O-])c(F)c1` [Compound 46, 2-[5-(2-Fluoro-4-methoxy-phenyl)-pyrazol-1-yl]-3-nitro-pyridine], the concentration giving a half-maximal response (EC50) is 6 µM.

Regarding `COc1ccc(-c2ccn(-c3ncc(C(F)(F)F)cc3Cl)n2)c(F)c1` [Compound 47, 3-Chloro-2-[3-(2-fluoro-4-methoxy-phenyl)-pyrazol-1-yl]-5-trifluoromethyl-pyridine], the concentration for a half-maximal effect (EC50) worked out at 6 µM.

With `COc1ccc(-c2ccnn2-c2ncc(C(F)(F)F)cc2Cl)c(F)c1` [Compound 48, 3-Chloro-2-[5-(2-fluoro-4-methoxy-phenyl)-pyrazol-1-yl]-5-trifluoromethyl-pyridine], the EC50 was 15 µM.

As for `COc1ccc(-c2ccn(-c3c(Cl)cncc3Cl)n2)c(F)c1` [Compound 49, 3,5-Dichloro-4-[3-(2-fluoro-4-methoxy-phenyl)-pyrazol-1-yl]-pyridine], the EC50 was greater than 32 µM.

Take `COc1ccc(-c2ccnn2-c2c(Cl)cncc2Cl)c(F)c1` [Compound 50, 3,5-Dichloro-4-[5-(2-fluoro-4-methoxy-phenyl)-pyrazol-1-yl]-pyridine]: the EC50 was 5.8 µM.

For `COc1ccc(-c2ccn(-c3ncccc3C(F)(F)F)n2)c(F)c1` [Compound 51, 2-[3-(2-Fluoro-4-methoxy-phenyl)-pyrazol-1-yl]-3-trifluoromethyl-pyridine], the concentration for a half-maximal effect (EC50) amounted to 20 µM.

`COc1ccc(-c2ccnn2-c2ncccc2C(F)(F)F)c(F)c1` [Compound 52, 2-[5-(2-Fluoro-4-methoxy-phenyl)-pyrazol-1-yl]-3-trifluoromethyl-pyridine]: the EC50 amounted to 2.1 µM.

As for `COc1ccc(-c2ccn(-c3ccccn3)n2)c(F)c1` [Compound 53, 2-[3-(2-Fluoro-4-methoxy-phenyl)-pyrazol-1-yl]-pyridine], the concentration for a half-maximal effect (EC50) is greater than 32 µM.

On to `COc1ccc(-c2ccnn2-c2ccccn2)c(F)c1` [Compound 54, 2-[5-(2-Fluoro-4-methoxy-phenyl)-pyrazol-1-yl]-pyridine], for which the EC50 came to 2.2 µM.

Regarding `CCCNC(=O)c1cc(-c2ccc(OC)cc2)nn1-c1ccc(Cl)cc1` [Compound 55, 2-(4-Chloro-phenyl)-5-(4-methoxy-phenyl)-2H-pyrazole-3-carboxylic acid propylamide], the EC50 came to 18 µM.

`CCOC(=O)c1cc(-c2ccc(OC)cc2)nn1-c1ncccc1C(F)(F)F` [Compound 56, 5-(4-Methoxy-phenyl)-2-(3-trifluoromethyl-pyridin-2-yl)-2H-pyrazole-3-carboxylic acid ethyl ester]: the EC50 was greater than 32 µM.

Turning to `CCOC(=O)c1cc(-c2ccc(OC)cc2)n(-c2ncccc2C(F)(F)F)n1` [Compound 57, 5-(4-Methoxy-phenyl)-1-(3-trifluoromethyl-pyridin-2-yl)-1H-pyrazole-3-carboxylic acid ethyl ester], the EC50 was greater than 32 µM.

For `COc1ccc(-c2cc(C(=O)O)nn2-c2ncccc2C(F)(F)F)cc1` [Compound 58], the concentration giving a half-maximal response (EC50) is greater than 32 µM.

On to `CCCNC(=O)c1cc(-c2ccc(OC)cc2)nn1-c1ncccc1C(F)(F)F` [Compound 59, 5-(4-Methoxy-phenyl)-2-(3-trifluoromethyl-pyridin-2-yl)-2H-pyrazole-3-carboxylic acid propylamide], for which the EC50 is greater than 32 µM.

Take `CCOC(=O)c1cc(-c2ccc(OC)cc2)nn1-c1ncccc1[N+](=O)[O-]` [Compound 60, 5-(4-Methoxy-phenyl)-2-(3-nitro-pyridin-2-yl)-2H-pyrazole-3-carboxylic acid ethyl ester]: the 50% effective concentration (EC50) was greater than 32 µM.

On to `CCOC(=O)c1cc(-c2ccc(OC)cc2)n(-c2ncccc2[N+](=O)[O-])n1` [Compound 61, 5-(4-Methoxy-phenyl)-1-(3-nitro-pyridin-2-yl)-1H-pyrazole-3-carboxylic acid ethyl ester], for which the EC50 was found to be 19 µM.

In the case of `CCCNC(=O)c1cc(-c2ccc(OC)cc2)nn1-c1ccccn1` [Compound 62], the concentration for a half-maximal effect (EC50) is greater than 32 µM.

Turning to `COc1ccc(-c2cc(C(=O)O)n(-c3ccccn3)n2)cc1` [Compound 63], the EC50 was greater than 32 µM.

Consider `CCOC(=O)c1cc(-c2ccc3ccccc3c2)nn1-c1ccccn1` [Compound 65, 5-Naphthalen-2-yl-2-pyridin-2-yl-2H-pyrazole-3-carboxylic acid ethyl ester], for which the half-maximal effective concentration (EC50) is greater than 32 µM.

In the case of `CCOC(=O)c1cc(-c2ccc3ccccc3c2)n(-c2ccccn2)n1` [Compound 66, 5-Naphthalen-2-yl-1-pyridin-2-yl-1H-pyrazole-3-carboxylic acid ethyl ester], the EC50 was 30 µM.

Regarding `CCOC(=O)c1cc(-c2ccc3ccccc3c2)n(-c2ncccc2C(F)(F)F)n1` [Compound 67, 5-Naphthalen-2-yl-1-(3-trifluoromethyl-pyridin-2-yl)-1H-pyrazole-3-carboxylic acid ethyl ester], the EC50 was 22 µM.

`CCOC(=O)c1cc(-c2ccc3ccccc3c2)nn1-c1ncccc1C(F)(F)F` [Compound 68]: the concentration for a half-maximal effect (EC50) stood at 12 µM.

For the compound `CCOC(=O)c1cc(-c2ccc3ccccc3c2)n(-c2ncccc2[N+](=O)[O-])n1` [Compound 69], the EC50 stood at 24 µM.

With `CCCNC(=O)c1cc(-c2ccc(OC)cc2)nn1-c1ncccc1[N+](=O)[O-]` [Compound 70, 5-(4-Methoxy-phenyl)-2-(3-nitro-pyridin-2-yl)-2H-pyrazole-3-carboxylic acid propylamide], the half-maximal effective concentration (EC50) is greater than 32 µM.

On to `CCCNC(=O)c1cc(-c2ccc3ccccc3c2)nn1-c1ccccn1` [Compound 71, 5-Naphthalen-2-yl-2-pyridin-2-yl-2H-pyrazole-3-carboxylic acid propylamide], for which the EC50 turned out to be 21 µM.

`CCCNC(=O)c1cc(-c2ccc3ccccc3c2)n(-c2ccccn2)n1` [Compound 72, 5-Naphthalen-2-yl-1-pyridin-2-yl-1H-pyrazole-3-carboxylic acid propylamide]: the concentration giving a half-maximal response (EC50) was greater than 32 µM.

Turning to `O=C(O)c1cc(-c2ccc3ccccc3c2)nn1-c1ccccn1` [Compound 73, 5-Naphthalen-2-yl-2-pyridin-2-yl-2H-pyrazole-3-carboxylic acid], the EC50 was greater than 32 µM.

In the case of `O=C(O)c1cc(-c2ccc3ccccc3c2)n(-c2ccccn2)n1` [Compound 74, 5-Naphthalen-2-yl-1-pyridin-2-yl-1H-pyrazole-3-carboxylic acid], the EC50 is greater than 32 µM.

Regarding `O=C(O)c1cc(-c2ccc3ccccc3c2)n(-c2ncccc2[N+](=O)[O-])n1` [Compound 75], the EC50 was greater than 32 µM.

For the compound `CCCNC(=O)c1cc(-c2ccc3ccccc3c2)nn1-c1ncccc1C(F)(F)F` [Compound 76, 5-Naphthalen-2-yl-2-(3-trifluoromethyl-pyridin-2-yl)-2H-pyrazole-3-carboxylic acid propylamide], the EC50 stood at 9.4 µM.

On to `CCCNC(=O)c1cc(-c2ccc3ccccc3c2)n(-c2ncccc2C(F)(F)F)n1` [Compound 77, 5-Naphthalen-2-yl-1-(3-trifluoromethyl-pyridin-2-yl)-1H-pyrazole-3-carboxylic acid propylamide], for which the concentration for a half-maximal effect (EC50) was greater than 32 µM.

With `O=C(O)c1cc(-c2ccc3ccccc3c2)nn1-c1ncccc1C(F)(F)F` [Compound 78, 5-Naphthalen-2-yl-2-(3-trifluoromethyl-pyridin-2-yl)-2H-pyrazole-3-carboxylic acid], the EC50 was greater than 32 µM.

Regarding `O=C(O)c1cc(-c2ccc3ccccc3c2)n(-c2ncccc2C(F)(F)F)n1` [Compound 79, 5-Naphthalen-2-yl-1-(3-trifluoromethyl-pyridin-2-yl)-1H-pyrazole-3-carboxylic acid], the EC50 is greater than 32 µM.

For the compound `COc1ccc(OCc2ccccc2)c(-c2ccn(-c3ncccc3C(F)(F)F)n2)c1` [Compound 80, 2-[3-(2-Benzyloxy-5-methoxy-phenyl)-pyrazol-1-yl]-3-trifluoromethyl-pyridine], the EC50 came to 1.8 µM.

As to `COc1ccc(OCc2ccccc2)c(-c2ccnn2-c2ncccc2C(F)(F)F)c1` [Compound 81, 2-[5-(2-Benzyloxy-5-methoxy-phenyl)-pyrazol-1-yl]-3-trifluoromethyl-pyridine], the EC50 is 6.2 µM.

As for `COc1ccc(OCc2ccccc2)c(-c2ccn(-c3ccccn3)n2)c1` [Compound 82, 2-[3-(2-Benzvloxy-5-methoxy-phenvl)-pvrazol-1-yl]-pyridine], the 50% effective concentration (EC50) was determined as 4.3 µM.
